Values quoted from earlier work as cited in US20240041983A1, “IMPROVED PHARMACEUTICAL FORMULATIONS OF GLP-1 RECEPTOR AGONISTS” (CYPRUMED GMBH, priority 2020, published 2024).

Settings: in humans

Substance: semaglutide
- t½: ~1 week
